Assay results: ChEMBL document CHEMBL4138047, “Recent advancements in the discovery of protein-protein interaction inhibitors of replication protein A” (Medchemcomm, 2017)

Tests used:
[1] = biological target: T1, Replication protein A 70 kDa DNA-binding subunit (Homo sapiens, UniProt P27694); assay: Binding affinity to RPA70 (unknown origin) by FITC-labeled probe based fluorescence polarization anisotropy
[2] = Protein binding in human plasma at 1 ug/ml after 4 hrs by LC-MS/MS method; type: ADME, cell-free; settings: read-out: PPB (converted)
[3] = Apparent permeability in human Caco2 cells at 5 uM incubated for 120 mins by LC-MS/MS method; type: ADME, cell-based; settings: Caco-2
[4] = biological target: T1, Replication protein A 70 kDa DNA-binding subunit; assay: Inhibition of GST-tagged X-rhodamine-labelled p53TAD2 binding to human recombinant RPA70 expressed in Escherichia coli BL21 by fluorescence anisotropy competition assay
[5] = biological target: T1, Replication protein A 70 kDa DNA-binding subunit; assay: Binding affinity to human recombinant RPA70 expressed in Escherichia coli BL21 using FPA by tryptophan fluorescence quenching assay
[6] = Binding affinity to human recombinant RPA70 R41E/R43E mutant expressed in Escherichia coli BL21 using FPA by tryptophan fluorescence quenching assay

T1 sequence (P27694 whole entry): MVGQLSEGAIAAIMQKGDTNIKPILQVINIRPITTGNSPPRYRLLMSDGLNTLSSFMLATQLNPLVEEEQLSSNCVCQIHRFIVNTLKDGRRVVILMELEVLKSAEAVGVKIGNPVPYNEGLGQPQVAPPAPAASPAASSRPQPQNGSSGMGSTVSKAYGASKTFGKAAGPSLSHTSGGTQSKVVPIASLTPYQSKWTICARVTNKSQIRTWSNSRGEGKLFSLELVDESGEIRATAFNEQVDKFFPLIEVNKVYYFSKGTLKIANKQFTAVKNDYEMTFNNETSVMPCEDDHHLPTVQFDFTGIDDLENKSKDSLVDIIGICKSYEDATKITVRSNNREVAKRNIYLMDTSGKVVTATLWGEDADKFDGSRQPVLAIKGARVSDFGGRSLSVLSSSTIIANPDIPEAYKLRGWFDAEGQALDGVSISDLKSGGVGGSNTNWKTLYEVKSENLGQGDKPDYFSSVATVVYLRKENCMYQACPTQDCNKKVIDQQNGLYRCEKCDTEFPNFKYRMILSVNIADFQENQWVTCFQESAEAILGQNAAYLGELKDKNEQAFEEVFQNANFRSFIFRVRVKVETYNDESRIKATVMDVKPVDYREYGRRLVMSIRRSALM

Structure (SMILES)	Kd [1] [µM]	fraction unbound at 4 h, 1 ug/ml [2]	Papp at 2 h, 5 µM [3] [×10⁻⁶ cm/s]	Kd [4] [µM]	Kd [5] [µM]	Kd [6] [µM]
Cc1ccc(C(=O)Nc2ccccc2C(=O)O)cc1S(=O)(=O)Nc1ccc(Br)cc1	30	–	–	–	–	–
Cc1ccc(C(=O)Nc2cc(Br)ccc2C(=O)O)cc1S(=O)(=O)Nc1ccc(Cl)c(Cl)c1	0.81	0.002	29.2	–	–	–
CC(C)C1=C[C@@]23CC[C@@H]4[C@](C)(CCC[C@@]4(C)C(=O)O)[C@H]2C[C@@H]1[C@@H](C(=O)O)[C@@H]3C(=O)O	–	–	–	9	29	230
